Source: ChEMBL document CHEMBL1155414, “Identification of a urea bioisostere of a triazole oxytocin antagonist” (Bioorg Med Chem Lett, 2010)

Columns and labels:
Vasopressin V1a receptor = Vasopressin V1a receptor (Homo sapiens, UniProt P37288); test: Antagonist activity at human vasopressin V1A receptor; format: functional
Oxytocin receptor = target: T1, Oxytocin receptor (Homo sapiens, UniProt P30559); test: Antagonist activity at human oxytocin receptor expressed in CHO cells by beta lactamase assay; format: functional, cell-based
T1 sequence (P30559 whole entry): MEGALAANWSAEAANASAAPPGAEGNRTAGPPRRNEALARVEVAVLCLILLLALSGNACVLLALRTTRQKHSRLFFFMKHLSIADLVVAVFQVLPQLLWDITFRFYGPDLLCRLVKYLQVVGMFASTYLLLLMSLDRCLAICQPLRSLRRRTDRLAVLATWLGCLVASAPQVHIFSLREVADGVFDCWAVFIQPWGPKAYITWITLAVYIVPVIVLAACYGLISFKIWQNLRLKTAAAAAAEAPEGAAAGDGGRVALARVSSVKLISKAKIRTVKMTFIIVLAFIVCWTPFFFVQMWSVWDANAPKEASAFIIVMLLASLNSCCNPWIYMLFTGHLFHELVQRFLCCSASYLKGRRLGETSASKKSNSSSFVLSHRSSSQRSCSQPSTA

[1] = target: Vasopressin V2 receptor (Homo sapiens) (UniProt P30518); test: Antagonist activity at human vasopressin V2 receptor at 10 uM; format: functional; set-up: scale not given: the % may be the effect or the level left
[2] = target: T2, Vasopressin V1b receptor (Homo sapiens) (UniProt P47901); test: Antagonist activity at human vasopressin V1B receptor at 10 uM; format: functional; set-up: scale not given: the % may be the effect or the level left
T2 sequence (whole entry): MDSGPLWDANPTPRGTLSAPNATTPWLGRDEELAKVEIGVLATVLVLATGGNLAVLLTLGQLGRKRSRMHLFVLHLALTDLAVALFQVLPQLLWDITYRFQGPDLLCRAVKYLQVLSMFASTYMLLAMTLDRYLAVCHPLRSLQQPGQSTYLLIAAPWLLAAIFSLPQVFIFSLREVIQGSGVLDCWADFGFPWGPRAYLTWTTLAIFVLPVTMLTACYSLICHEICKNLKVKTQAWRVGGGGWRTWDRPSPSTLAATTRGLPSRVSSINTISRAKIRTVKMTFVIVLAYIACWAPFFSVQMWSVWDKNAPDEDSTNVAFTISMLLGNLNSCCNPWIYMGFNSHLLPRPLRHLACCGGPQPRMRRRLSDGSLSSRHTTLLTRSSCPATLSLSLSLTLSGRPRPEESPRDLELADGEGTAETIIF

Sequence of Vasopressin V1a receptor (P37288 whole entry): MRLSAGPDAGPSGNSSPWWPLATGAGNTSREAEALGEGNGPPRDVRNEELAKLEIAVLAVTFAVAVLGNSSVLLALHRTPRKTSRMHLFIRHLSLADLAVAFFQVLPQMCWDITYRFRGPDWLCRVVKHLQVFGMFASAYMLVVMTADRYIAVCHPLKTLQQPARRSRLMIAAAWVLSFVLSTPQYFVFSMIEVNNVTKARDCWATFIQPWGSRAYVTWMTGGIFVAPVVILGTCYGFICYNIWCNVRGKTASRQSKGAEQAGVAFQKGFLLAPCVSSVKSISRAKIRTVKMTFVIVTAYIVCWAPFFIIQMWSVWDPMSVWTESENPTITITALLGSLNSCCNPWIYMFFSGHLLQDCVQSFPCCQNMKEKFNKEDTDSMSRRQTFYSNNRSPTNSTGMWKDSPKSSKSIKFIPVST
Sequence of Vasopressin V2 receptor (Homo sapiens) (P30518 whole entry): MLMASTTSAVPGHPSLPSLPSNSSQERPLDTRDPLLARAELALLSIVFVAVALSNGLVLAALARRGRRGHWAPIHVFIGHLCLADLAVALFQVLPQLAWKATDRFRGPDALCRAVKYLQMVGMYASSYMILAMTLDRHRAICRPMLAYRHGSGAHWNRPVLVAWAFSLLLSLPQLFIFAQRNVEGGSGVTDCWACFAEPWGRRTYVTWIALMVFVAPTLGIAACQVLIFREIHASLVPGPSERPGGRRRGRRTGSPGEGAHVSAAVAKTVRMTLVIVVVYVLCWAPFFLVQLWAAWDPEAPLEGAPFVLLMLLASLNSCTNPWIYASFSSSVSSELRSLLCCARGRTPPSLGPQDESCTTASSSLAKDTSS

Row | SMILES | Ki (Vasopressin V1a receptor) | Ki (Oxytocin receptor) | Activity [1] | Activity [2]
1 | COc1ccc(N(C)C(=O)N2CC(Oc3ccc(F)cc3C)C2)cn1 | 1300 nM | 112 nM |  | 
2 | COc1ccc(N(C)C(=O)N2CC(Oc3ccc(F)cc3Cl)C2)cn1 | 779 nM | 67.2 nM |  | 
3 | CCN(C(=O)N1CC(Oc2cccc(F)c2C)C1)c1ccc(OC)nc1 | > 4200 nM | 13.9 nM | < 10% | < 10%
4 | COc1ccc(N(C)C(=O)N2CC(Oc3cccc(F)c3C)C2)cn1 | > 4200 nM | 159 nM |  | 
5 | CCN(C(=O)N1CC(Oc2ccc(F)cc2Cl)C1)c1ccc(OC)nc1 |  | 48.4 nM |  | 

The remaining compounds from weak to strong by Ki (Oxytocin receptor), led by results:

Row | Ki (Vasopressin V1a receptor) | Ki (Oxytocin receptor) | Activity [1] | Activity [2] | SMILES
6 | > 4200 nM | 237 nM |  |  | COc1ccc(N(C)C(=O)N2CC(Oc3cc(F)cc(F)c3C)C2)cn1
7 |  | 43 nM |  |  | CCN(C(=O)N1CC(Oc2ccc(F)cc2C)C1)c1ccc(OC)nc1
8 | > 4200 nM | 41.4 nM |  |  | COc1ccc(-n2c(C)nnc2N2CC(Oc3cc(F)cc(F)c3C)C2)cn1
9 |  | 36.7 nM |  |  | CCN(C(=O)N1CC(Oc2cc(F)cc(F)c2C)C1)c1ccc(OC)nc1
10 | > 4200 nM | 19.7 nM |  |  | COc1ccc(-n2c(C)nnc2N2CC(Oc3cccc(F)c3C)C2)cn1
